Where a name gives a salt, the structure may show the parent alone. Read-outs that look alike come from different tables or passages of the source.
Assays:
hA1 AR = target: T1, hA1 AR (Homo sapiens, UniProt P30542); assay: Radioligand binding at human A1 ARs, displacement of [3H]CCPA, membranes of transfected CHO cells
T1 sequence (P30542 1-326): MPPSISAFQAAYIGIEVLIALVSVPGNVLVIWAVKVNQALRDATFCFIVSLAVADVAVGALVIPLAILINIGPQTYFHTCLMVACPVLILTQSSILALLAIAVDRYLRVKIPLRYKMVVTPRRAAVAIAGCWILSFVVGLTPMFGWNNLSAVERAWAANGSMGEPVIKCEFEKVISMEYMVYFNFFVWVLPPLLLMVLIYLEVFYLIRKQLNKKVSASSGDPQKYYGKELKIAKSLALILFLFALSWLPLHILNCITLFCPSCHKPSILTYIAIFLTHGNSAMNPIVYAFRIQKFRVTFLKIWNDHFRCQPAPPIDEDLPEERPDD
Procedure: (§1) All pharmacological methods followed the procedures as described earlier. […] In brief, membranes for radioligand binding were prepared from CHO cells stably transfected with human AR subtypes in a two-step procedure. In a first low-speed step (1,000 x g) cell fragments and nuclei were removed. The crude membrane fraction was sedimented from the supernatant at 100,000 x g. The membrane pellet was resuspended in the buffer used for the respective binding experiments (50 mM Tris/HCl buffer pH 7.4 for hA1 and hA2A AR; 50 mM Tris/HCl, 10 mM MgCl2, 1 mM EDTA, pH 8.25 for hA3 AR), frozen in liquid nitrogen and stored at -80°C.
(§2) Ki-values from competition experiments were calculated with the program SCTFIT.

hA2A AR [1] = target: T2, hA2A AR (Homo sapiens, UniProt P29274); assay: Radioligand binding at human A2A ARs, displacement of [3H]NECA, membranes of transfected CHO cells
T2 construct: expressed in transfected cells; host or cells: CHO cells, stably transfected
T2 sequence (P29274 whole entry): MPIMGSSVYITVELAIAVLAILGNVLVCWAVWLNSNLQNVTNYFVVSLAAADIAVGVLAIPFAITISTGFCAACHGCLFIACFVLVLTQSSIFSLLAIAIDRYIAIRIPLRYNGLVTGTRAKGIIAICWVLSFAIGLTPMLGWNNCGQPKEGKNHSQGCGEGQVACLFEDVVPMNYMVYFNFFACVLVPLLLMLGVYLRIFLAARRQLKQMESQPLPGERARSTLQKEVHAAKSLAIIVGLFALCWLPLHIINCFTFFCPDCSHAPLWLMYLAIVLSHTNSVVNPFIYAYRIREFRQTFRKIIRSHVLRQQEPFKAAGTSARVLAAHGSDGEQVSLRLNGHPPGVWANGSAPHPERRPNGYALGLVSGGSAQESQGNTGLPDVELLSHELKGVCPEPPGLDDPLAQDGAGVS
Procedure: as §1, §2

hA2B AR = target: T3, hA2B AR (Homo sapiens, UniProt P29275); assay: Inhibition of NECA-stimulated adenylyl cyclase activity in CHO cells expressing hA2B ARs; type: biochemical
T3 construct: expressed in transfected cells; host or cells: CHO cells, stably transfected
T3 sequence (P29275 1-332): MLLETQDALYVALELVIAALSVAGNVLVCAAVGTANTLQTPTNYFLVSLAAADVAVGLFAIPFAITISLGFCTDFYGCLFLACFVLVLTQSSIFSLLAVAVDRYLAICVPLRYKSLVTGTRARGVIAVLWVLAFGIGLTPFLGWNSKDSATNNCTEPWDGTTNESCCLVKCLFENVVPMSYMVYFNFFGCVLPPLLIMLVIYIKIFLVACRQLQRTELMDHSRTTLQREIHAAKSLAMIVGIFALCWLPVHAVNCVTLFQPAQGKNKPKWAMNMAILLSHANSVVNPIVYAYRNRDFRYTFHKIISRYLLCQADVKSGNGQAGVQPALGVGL
Procedure: All pharmacological methods followed the procedures as described earlier. […] For the measurement of adenylyl cyclase activity only one high speed centrifugation of the homogenate was used. The resulting crude membrane pellet was resuspended in 50 mM Tris/HCl, pH 7.4 and immediately used for the cyclase assay.
The procedure was carried out as described previously with minor modifications. […] Membranes were incubated with about 150,000 cpm of [α-^32P]ATP for 20 min in the incubation mixture as described without EDTA and NaCl.

hA3 AR [2] = target: T4, hA3 AR (Homo sapiens, UniProt P0DMS8); assay: Radioligand binding at human A3 ARs, displacement of [3H]HEMADO, membranes of transfected CHO cells; settings: for Ki, hA2a/hA3 (selectivity) / Ki, hA2b/hA3 (selectivity) / Ki, hA1/hA3 (selectivity): ratio of Ki values, for reference compounds from literature affinities (Borea et al. unless otherwise indicated)
T4 construct: expressed in transfected cells; host or cells: CHO cells, stably transfected
T4 sequence (P0DMS8 1-318): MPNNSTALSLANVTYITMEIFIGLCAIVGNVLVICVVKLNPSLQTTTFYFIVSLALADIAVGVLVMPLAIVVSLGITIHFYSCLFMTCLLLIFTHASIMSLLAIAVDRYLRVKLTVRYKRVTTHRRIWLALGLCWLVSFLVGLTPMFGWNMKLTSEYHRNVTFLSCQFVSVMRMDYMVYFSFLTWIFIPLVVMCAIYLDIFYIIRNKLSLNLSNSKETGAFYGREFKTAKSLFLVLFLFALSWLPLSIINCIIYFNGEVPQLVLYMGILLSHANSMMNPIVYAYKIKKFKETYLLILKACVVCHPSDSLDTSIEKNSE
Procedure: as §1, §2

hA3 AR [3] = target: T4, hA3 AR; settings: cited from earlier work; for Ki: reference xanthines
hA2A AR [4] = target: T2, hA2A AR; settings: reference xanthines; cited from earlier work
[5] = displacement of specific [3H]-CCPA binding, CHO cells, n = 3–6, geometric means with 95% confidence limits, read-out: hA1 AR (Ki nM)
[6] = displacement of specific [3H]-NECA binding, CHO cells, geometric means with 95% confidence limits, read-out: hA2A AR (Ki nM)
[7] = competition for [3H]HEMADO, total binding, single experiment (S1 Fig), read-out: Ki, hA3 AR, representative single experiment
[8] = displacement of specific [3H]-HEMADO binding, CHO cells, geometric means with 95% confidence limits, read-out: hA3 AR (Ki nM)

`Cn1cc2c(nc(NC(=O)Nc3ccccc3)n3nc(-c4cnn(Cc5cccc(C(F)(F)F)c5)c4)nc23)n1` [compound 4, 1-{8-Methyl-2-[1-(3-trifluoromethyl-benzyl)-1H-pyrazol-4-yl]-8H-pyrazolo[4,3-e][1,2,4]triazolo [1,5-c]pyrimidin-5-yl}-3-phenylurea] showed a Ki (hA1 AR; [5]) of 3890 nM, a Ki (hA2A AR [1]; [6]) of 2460 nM and a Ki (hA2B AR) of over 10000 nM. It also gave a Ki (hA3 AR [2]; [7]) of 39 nM and a Ki (hA3 AR [2]; [8]) of 46.7 nM.

For `Cn1cc2c(nc(N)n3nc(-c4cnn(Cc5cccc(C(F)(F)F)c5)c4)nc23)n1` [compound 3, 8-methyl-2-[1-(3-trifluoromethyl-benzyl)-1H-pyrazol-4-yl]-8H-pyrazolo[4,3-e][1,2,4]triazolo[1,5-c]pyrimidin-5-ylamine], the Ki (hA1 AR; competition with [3H]CCPA, total binding, single experiment (S2 Fig), read-out: Ki, hA1 AR, representative single experiment) was 764 nM, the “hA1 AR (Ki nM)” value (hA1 AR; displacement of specific [3H]-CCPA binding, CHO cells, n = 3–6, geometric means with 95% confidence limits) was “almost inactive” and the Ki (hA1 AR; [5]) was 703 nM. For the same molecule, the Ki (hA2A AR [1]; competition with [3H]NECA, total binding, single experiment (S3 Fig), read-out: Ki, hA2A AR, representative single experiment) was 6820 nM, the “hA2A AR (Ki nM)” value (hA2A AR [1]; displacement of specific [3H]-NECA binding, CHO cells, geometric means with 95% confidence limits) was “almost inactive” and the Ki (hA2A AR [1]; [6]) was 8280 nM. For the same molecule, the Ki (hA2B AR) was over 10000 nM, the “hA2B AR (Ki nM)” value (hA2B AR) was “almost inactive” and the “hA3 AR (Ki nM)” value (hA3 AR [2]; displacement of specific [3H]-HEMADO binding, CHO cells, geometric means with 95% confidence limits) was “almost inactive”. For the same molecule, the Ki (hA3 AR [2]; [8]) was 2360 nM, the “Ki, hA2a/hA3 (selectivity)” value (hA3 AR [2]) was 4 and the “Ki, hA2b/hA3 (selectivity)” value (hA3 AR [2]) was 4. It also gave a melting point of 125 °C.

In the case of `Cn1c(=O)c2[nH]c(-c3cnn(Cc4cccc(C(F)(F)F)c4)c3)nc2n(C)c1=O` [compound 1, 8-(1-(3-(trifluoromethyl)benzyl)-1H-pyrazol-4-yl)-1,3-dimethyl-1H-purine-2,6(3H,7H)-dione, reference compound], the “Ki, hA1/hA3 (selectivity)” value (hA3 AR [2]) is reported as 1 and the “Ki, hA2a/hA3 (selectivity)” value (hA3 AR [2]) is reported as 1.

For `COc1ccc(CC(=O)Nc2nc3nn(C)cc3c3nc(-c4cnn(Cc5cccc(C(F)(F)F)c5)c4)nn23)cc1` [compound 7], the Ki (hA1 AR; [5]) was 4390 nM, the Ki (hA2A AR [1]; [6]) was 20500 nM and the Ki (hA2B AR) was over 10000 nM. The Ki (hA3 AR [2]; [8]) was 53 nM and the melting point was 178 °C.

With `Cn1cc2c(nc(NC(=O)Cc3ccccc3)n3nc(-c4cnn(Cc5cccc(C(F)(F)F)c5)c4)nc23)n1` [compound 6, N-{8-Methyl-2-[1-(3-trifluoromethyl-benzyl)-1H-pyrazol-4-yl]-8H-pyrazolo[4,3-e][1,2,4]triazolo[1,5-c]pyrimidin-5-yl}-phenyl-acetamide] the Ki (hA1 AR; [5]) was over 100000 nM, the Ki (hA2A AR [1]; [6]) was over 100000 nM and the Ki (hA2B AR) was over 10000 nM. For the same molecule, the Ki (hA3 AR [2]; [7]) was 17 nM, the Ki (hA3 AR [2]; [8]) was 11 nM and the “Ki, hA2a/hA3 (selectivity)” value (hA3 AR [2]) was over 9091. For the same molecule, the “Ki, hA2b/hA3 (selectivity)” value (hA3 AR [2]) was over 909 and the melting point was 190 °C.

For `CCCCC#Cc1nc(NC)c2ncn([C@@H]3O[C@H](CO)[C@@H](O)[C@H]3O)c2n1` [[^3H]HEMADO, [^3H]2-(1-Hexynyl)-N-methyladenosine], the Kd (hA3 AR [3]; radioligand used at 1 nM, read-out: KD of radioligand at A3 AR) is listed as 1.1 nM.

In the case of `Cn1cc2c(nc(NC(=O)c3ccccc3)n3nc(-c4cnn(Cc5cccc(C(F)(F)F)c5)c4)nc23)n1` [compound 5, N-{8-Methyl-2-[1-(3-trifluoromethyl-benzyl)-1H-pyrazol-4-yl]-8H-pyrazolo[4,3-e][1,2,4]triazolo[1,5-c]pyrimidin-5-yl}-benzamide], the Ki (hA1 AR; [5]) is reported as 25500 nM, the Ki (hA2A AR [1]; [6]) is reported as over 100000 nM and the Ki (hA2B AR) is reported as over 10000 nM. For the same molecule, the Ki (hA3 AR [2]; [8]) was 138 nM.

For `Cn1cc2c(nc(NC(=O)Nc3ccncc3)n3nc(-c4ccco4)nc23)n1` [MRE3005F20 (HCl), reference compound], the “Ki, hA1/hA3 (selectivity)” value (hA3 AR [2]) was 35000, the “Ki, hA2a/hA3 (selectivity)” value (hA3 AR [2]) was 10000 and the “Ki, hA2b/hA3 (selectivity)” value (hA3 AR [2]) was 25000.

For `CCCn1c(=O)c2[nH]c(-c3cnn(Cc4cccc(F)c4)c3)nc2n(CCC)c1=O` [compound 36, reference compound], the “Ki, hA1/hA3 (selectivity)” value (hA3 AR [2]) is listed as 1, the “Ki, hA2a/hA3 (selectivity)” value (hA3 AR [2]) is listed as 3 and the Ki (hA2A AR [4]) is listed as 400 nM. The Ki (hA3 AR [3]) was 150 nM.

For `CCCn1c(=O)c2[nH]c(-c3cnn(Cc4cccc(C(F)(F)F)c4)c3)nc2n(CCC)c1=O` [compound 33, reference compound], the “Ki, hA1/hA3 (selectivity)” value (hA3 AR [2]) is listed as 3, the “Ki, hA2a/hA3 (selectivity)” value (hA3 AR [2]) is listed as 4 and the Ki (hA2A AR [4]) is listed as 230 nM. The Ki (hA3 AR [3]) was 56 nM.

— article PMC4666649, “The Influence of the 1-(3-Trifluoromethyl-Benzyl)-1H-Pyrazole-4-yl Moiety on the Adenosine Receptors Affinity Profile of Pyrazolo[4,3-e][1,2,4]Triazolo[1,5-c]Pyrimidine Derivatives” (PLoS ONE, 2015)
